Source: the SangsterLogP compilation

| logP | SMILES |
| --- | --- |
| 2.41 | COc1ccc2c(c1)OCC2NC(=O)CN1CCCCC1 (stereo not drawn) |
| 2.69 | CCN(CC)CC(=O)NC1COc2ccc(C)cc21 (stereo not drawn) |
| 2.2 | CCN(CC)CC(=O)NC1COc2ccccc21 (stereo not drawn) |
| 1.55 | O=C(CN1CCOCC1)NC1COc2ccc(Cl)cc21 (stereo not drawn) |
| 3.01 | O=C(CN1CCCCC1)NC1COc2ccc(Cl)cc21 (stereo not drawn) |
| 1.76 | O=C(CN1CCCC1)NC1COc2ccccc21 (stereo not drawn) |
| 0.81 | O=C(CN1CCOCC1)NC1COc2ccccc21 (stereo not drawn) |
| 2.88 | CCN(CC)CC(=O)NC1COc2ccc(Cl)cc21 (stereo not drawn) |

Further lines, the compound ahead of its results:

| SMILES | logP |
| --- | --- |
| CCCCN(CCCC)CC(=O)NC1COc2ccccc21 (stereo not drawn) | 4.15 |
| CCCCN(CCCC)CC(=O)NC1COc2ccc(Cl)cc21 (stereo not drawn) | 4.44 |
| Cc1ccc2c(c1)C(NC(=O)CN1CCCCC1)CO2 (stereo not drawn) | 2.78 |
| CCCCN(CCCC)CC(=O)NC1COc2ccc(C)cc21 (stereo not drawn) | 4.43 |
| COc1ccc2c(c1)OCC2NC(=O)CN1CCOCC1 (stereo not drawn) | 0.92 |
| CCCCN(CCCC)CC(=O)NC1COc2cc(OC)ccc21 (stereo not drawn) | 4.24 |
| O=C(CN1CCCCC1)NC1COc2ccccc21 (stereo not drawn) | 2.3 |
| O=C(CN1CCCC1)NC1COc2ccc(Cl)cc21 (stereo not drawn) | 2.47 |
| Cc1ccc2c(c1)C(NC(=O)CN1CCOCC1)CO2 (stereo not drawn) | 1.38 |
| Cc1ccc2c(c1)C(NC(=O)CN1CCCC1)CO2 (stereo not drawn) | 2.24 |
